# Patent US7220822B2, “CD28 mimetics for blocking T cell mediated immune reactions” (The Ohio State University, priority 2000, dated 2007)
# Like-named read-outs stand apart in the source and are kept apart here. Square brackets hold non-standard residues; d marks the D form. Peptide text beside a SMILES is read from it.
# What was measured:
# [1] = tested on: CD4+ LNC bearing Vα4 Vβ8.2 TCR; assay: IL-2 ELISPOT of antigen-stimulated CD4+ lymph node cells in vitro; type: cell-based, mouse; parameters: frequency of IL-2 secreting cells (in words): dose or concentration left out as unconfirmed; details: for number of IL-2 secreting NAc1-11 responders (in words): 75 μM and 100 μM peptide, p<0.05; for frequency of IL-2 secreting cells (in words): compared to untreated cells
# Procedure: Augmentation of T cell proliferation following CD28 ligation is a result of its ability to increase the synthesis of IL-2. To determine whether the observed reduction in proliferation is reflected in the IL-2 secretion, the ELISPOT assay was performed.
# Ninety-six well unifilter plates (Polyfiltronics, Rockland, Md.) were coated overnight at 4° C. with rat anti-mouse IL-2 (Clone JES6-1A12) (Pharmingen, Calif.) at 4 μg/ml. The plates were then washed 4× with sterile PBS and blocked with 1% BSA in DMEM for 2 h at room temperature. Subsequently, isolated single cell suspensions of CD4+ LNC (5×10^6 cells/ml) and splenocytes (10×10^6 cells/ml) were added with the antigens and CD28 peptides under the conditions as specified for the proliferation assays. After 24 h of culture in the incubator, the cells were removed by washing 3× with PBS and 4× with PBS containing Tween (1:2000) (PBST). Then biotinylated anti mouse-IL-2 (Clone JES6-5H4) (Pharmingen, Calif.) 2 μg/ml was added and incubated at 4° C. overnight. After washing 3× with PBST and 3× with PBS, goat anti-biotin antibody conjugated to alkaline phosphatase (Vector Laboratories Inc, Burlingame, Calif.) diluted to 1:1000 in PBST containing 1% BSA was added and incubated for 2 h at room temperature. The spots were visualized by adding BCIP/NBT phosphatase substrate (Kirkeguard & Perry Laboratories, Gaithesburg, Md.). Image analysis of ELISA spot assays was performed on a Series 1 Immunospot Image Analyzer (Autoimmun Diagnostika (US) Inc.) customized for analyzing ELISA spots to meet objective criteria for size, chromatic density, shape and color.
# CD80-Ig = target: T1, CD80-Ig (Homo sapiens, UniProt P33681); assay: Competitive kinetic analysis (SPR): CD28 peptides versus CD28-Ig for binding indirectly immobilized CD80-Ig; details: for kd: competition with CD28-Ig 3.2 μM
# T1 construct: extracellular domain of CD80 fused with the constant region of mouse IgG1 heavy chain
# T1 sequence (P33681 35-242 limits assumed, other chains not shown): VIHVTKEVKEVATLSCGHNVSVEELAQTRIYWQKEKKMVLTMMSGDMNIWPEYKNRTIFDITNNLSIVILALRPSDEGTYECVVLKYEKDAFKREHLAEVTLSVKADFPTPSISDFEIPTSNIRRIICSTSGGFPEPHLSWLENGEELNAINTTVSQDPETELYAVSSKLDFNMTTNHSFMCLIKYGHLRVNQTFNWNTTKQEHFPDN
# Procedure: Competitive kinetic analysis was performed as described previously using purified anti-mouse IgG1 Fc (31437zz) (Pierce City, Ill., USA) to indirectly immobilize CD80-Ig (39). […] The binding kinetics of CD28-Ig was assessed by injecting a range of CD28-Ig concentration (187 nM to 12 μM) over immobilized CD80-Ig (324 RU) for 5 min at 10 μl/min. CD80-Ig was regenerated using a 3 min injection of 5 mM NaOH. For competitive kinetic analysis, 100 μl of a 3.2 μM CD28-Ig solution was mixed with 100 μl of EL CD28 or RI CD28 peptides (6.18 μM to 503 μM in HBS-EP) and injected over the surface of CD80-Ig as secondary analyte for 5 min with a flow rate of 10 μl/min. The CD80-Ig surface was regenerated between injections by washing for 3 min with 5 mM NaOH. The mixtures were also injected on an empty flow cell with no protein immobilized, as a control.
# In competitive kinetic experiments, the observed response R is the sum of the contributions of R1 and R2 from the two analytes. The binding data was analyzed using the equation R(t)=R1 (CD28-Ig)+R2 (CD28-P) (3) where • R1=Rmaxka1C1/kf−ks{k1(kf−ks)/kf*ks+k1−kf/kf*e^−kf^(t−t0)−k1ks/ks*e^−ks(t−t0)} • R2=RmaxMW1ka2C2/MW2*kf−ks[{k2(kf−ks)}/kf*ks}+(k2−kf/kf)*e^−kf^(t−t0)−(k2−ks/ks)*e^−ks(t−t0) • kf=0.5{ktq+k2+π(ka1−k2)^2+4kf1kCD28PC1C2} • ks=0.5{kt1+k2−π(kt1−k2)^2+4k1k2C1C2} • kt CD28-Ig=ka1C+kd1 • kt2=ka2C2+kd2
# When competitive data were analyzed, ka, kd and Rmax values obtained for the interaction between CD80-Ig and CD28-Ig were used as non floating parameters and the rate constants for CD28 peptides were calculated from the injection phase data using the expanded equation 3.
# FIGS. 4a and 4b are representative sensograms obtained from the competitive experiments using the CD28-Ig and ELCD28 and RICD28 APR respectively. The top curve is the interaction of CD28-Ig (3.2 μM) alone with the CD80-Ig. The response level gradually goes down as the concentration of the specified CD28 peptide increases. […] However, the dissociation constant varied with varying concentration of EL CD28 peptide mimetic(Table 3).
# [2] = read-out: ka, competition with CD28-Ig 3.2 μM, peptide C 0.125 × 10^5 nM
# [3] = read-out: ka, competition with CD28-Ig 3.2 μM, peptide C 0.25 × 10^5 nM
# [4] = read-out: ka, competition with CD28-Ig 3.2 μM, peptide C 0.5 × 10^5 nM
# [5] = read-out: ka, competition with CD28-Ig 3.2 μM, peptide C 1 × 10^5 nM
# [6] = read-out: ka, competition with CD28-Ig 3.2 μM, peptide C 2 × 10^5 nM
# [7] = read-out: ka, competition with CD28-Ig 3.2 μM, peptide C 3 × 10^5 nM
SMILES,number of IL-2 secreting NAc1-11 responders (in words) [1],frequency of IL-2 secreting cells (in words) [1],kd (CD80-Ig; peptide C 0.125 × 10^5 nM) [s⁻¹],kd (CD80-Ig; peptide C 0.25 × 10^5 nM) [s⁻¹],kd (CD80-Ig; peptide C 0.5 × 10^5 nM) [s⁻¹],kd (CD80-Ig; peptide C 1 × 10^5 nM) [s⁻¹],kd (CD80-Ig; peptide C 2 × 10^5 nM) [s⁻¹],kd (CD80-Ig; peptide C 3 × 10^5 nM) [s⁻¹],kon (CD80-Ig; [2]) [M⁻¹ s⁻¹],kon (CD80-Ig; [3]) [M⁻¹ s⁻¹],kon (CD80-Ig; [4]) [M⁻¹ s⁻¹],kon (CD80-Ig; [5]) [M⁻¹ s⁻¹],kon (CD80-Ig; [6]) [M⁻¹ s⁻¹],kon (CD80-Ig; [7]) [M⁻¹ s⁻¹]
CC[C@H](C)[C@H](NC(=O)[C@@H](NC(=O)CNC(=O)[C@H](CC(N)=O)NC(=O)[C@H](CO)NC(=O)[C@H](CCCNC(=N)N)NC(=O)[C@H](CCC(=O)O)NC(=O)[C@H](CC(N)=O)NC(=O)[C@H](CC(=O)O)NC(=O)[C@H](CC(C)C)NC(=O)[C@H](Cc1ccc(O)cc1)NC(=O)[C@@H]1CCCN1C(=O)[C@@H]1CCCN1C(=O)[C@@H]1CCCN1C(=O)[C@H](Cc1ccc(O)cc1)NC(=O)[C@H](CCSC)NC(=O)[C@H](Cc1ccccc1)NC(=O)[C@H](CCC(=O)O)NC(=O)[C@@H](NC(=O)[C@H](CCCCN)NC(C)=O)[C@@H](C)CC)[C@@H](C)O)C(N)=O [EL CD28] (Ac-KIEFMYPPPYLDNERSNGTI-NH2),Significant decrease,significantly reduced,0.101,0.0195,0.316,0.0803,0.0862,6.89,73400,3360,63200,31600,55100,2.36e+06
CC[C@@H](C)[C@@H](NC(C)=O)C(=O)N[C@@H](C(=O)NCC(=O)N[C@H](CC(N)=O)C(=O)N[C@H](CO)C(=O)N[C@H](CCCNC(=N)N)C(=O)N[C@H](CCC(=O)O)C(=O)N[C@H](CC(N)=O)C(=O)N[C@H](CC(=O)O)C(=O)N[C@H](CC(C)C)C(=O)N[C@H](Cc1ccc(O)cc1)C(=O)N1CCC[C@@H]1C(=O)N1CCC[C@@H]1C(=O)N1CCC[C@@H]1C(=O)N[C@H](Cc1ccc(O)cc1)C(=O)N[C@H](CCSC)C(=O)N[C@H](Cc1ccccc1)C(=O)N[C@H](CCC(=O)O)C(=O)N[C@@H](C(=O)N[C@H](CCCCN)C(N)=O)[C@H](C)CC)[C@H](C)O [RI CD28] (Ac-[dI][dT]G[dN][dS][dR][dE][dN][dD][dL][dY][dP][dP][dP][dY][dM][dF][dE][dI][dK]-NH2),Significant decrease,significantly reduced,0.177,0.0738,0.275,0.142,0.0245,0.0206,105000,54400,92400,94700,23500,10700
